The record followed here is patent US20160280688A1, “SUBSTITUTED PHENYLALANINE DERIVATIVES” (BAYER PHARMA AKTIENGESELLSCHAFT, priority 2013, published 2016).

Molecules are shown by their SMILES. Where a name gives a salt, the structure may show the parent alone.

Experiment [1] deals with T1, human factor XIa (Homo sapiens, UniProt P03951).
T1 construct: purchased Kordia
As to the kind of experiment: Measurement of FXIa inhibition (fluorogenic peptide substrate Boc-Glu(OBzl)-Ala-Arg-AMC). The class given is biochemical. The note with it: factor XIa from Kordia, 15 min preincubation, 30 min at 22° C., fluorescence. The protocol:
To determine the factor XIa inhibition of the substances according to the invention, a biochemical test system is used which utilizes the reaction of a peptidic factor XIa substrate to determine the enzymatic activity of human factor XIa. Here, factor XIa cleaves from the peptic factor XIa substrate the C-terminal aminomethylcoumarin (AMC), the fluorescence of which is measured. The determinations are carried out in microtitre plates.
Test substances are dissolved in dimethyl sulphoxide and serially diluted in dimethyl sulphoxide (3000 μM to 0.0078 μM; resulting final concentrations in the test: 50 μM to 0.00013 μM). In each case 1 μl of the diluted substance solutions are placed into the wells of white microtitre plates from Greiner (384 wells). Subsequently, the following are added successively: 20 μl of assay buffer (50 mmol/l Tris buffer pH 7.4; 100 mmol/l sodium chloride; 5 mmol/l calcium chloride; 0.1% bovine serum albumin) and 20 μl of factor XIa from Kordia (0.45 nM in assay buffer). After 15 min of incubation, the enzyme reaction is started by addition of 20 μl of the factor XIa substrate Boc-Glu(OBzl)-Ala-Arg-AMC dissolved in assay buffer (10 μM in assay buffer) from Bachem, the mixture is incubated at room temperature (22° C.) for 30 min and fluorescence is then measured (excitation: 360 nm, emission: 460 nm). The measured emissions of the test batches with test substance are compared to those of control batches without test substance (only dimethyl sulphoxide instead of test substance in dimethyl sulphoxide), and IC50 values are calculated from the concentration/activity relationships.

Experiment [2] concerns human and animal plasma. In words: Determination of the anticoagulatory activity: activated partial thromboplastin time (aPTT) in plasma. The class given is biochemical. To be noted: in vitro in plasma, C.K. Prest kit, 3 min at 37° C. The procedure:
The anticoagulatory activity of the test substances is determined in vitro in human and animal plasma (for example mouse, rat, rabbit, pig and dog plasma). To this end, blood is drawn off in a mixing ratio of sodium citrate/blood of 1:9 using a 0.11 molar sodium citrate solution as receiver. Immediately after the blood has been drawn off, it is mixed thoroughly and centrifuged at about 4000 g for 15 minutes. The supernatant is pipetted off.
The activated partial thromboplastin time (aPTT) is determined in the presence of varying concentrations of test substance or the corresponding solvent using a commercial test kit (C.K. Prest from Diagnostica Stago). The test compounds are incubated with the plasma and the PTT reagent (cephalin, kaolin) at 37° C. for 3 minutes. Coagulation is then started by addition of a 25 mM aqueous calcium chloride solution, and the time when coagulation occurs is determined. The concentration of test substance which brings about a 1.5-fold extension of the aPTT is determined Activity data from this test are listed in Table B below: […]

T1 sequence (P03951 388-625 limits assumed): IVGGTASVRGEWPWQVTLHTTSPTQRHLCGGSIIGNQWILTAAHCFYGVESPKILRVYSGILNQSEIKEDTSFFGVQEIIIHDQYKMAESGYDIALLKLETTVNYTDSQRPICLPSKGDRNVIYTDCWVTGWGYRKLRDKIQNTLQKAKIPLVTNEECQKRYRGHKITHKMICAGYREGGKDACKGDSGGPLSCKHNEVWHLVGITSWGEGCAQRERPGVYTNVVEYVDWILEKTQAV
T1 sequence (P03951 19-387 partner limits assumed): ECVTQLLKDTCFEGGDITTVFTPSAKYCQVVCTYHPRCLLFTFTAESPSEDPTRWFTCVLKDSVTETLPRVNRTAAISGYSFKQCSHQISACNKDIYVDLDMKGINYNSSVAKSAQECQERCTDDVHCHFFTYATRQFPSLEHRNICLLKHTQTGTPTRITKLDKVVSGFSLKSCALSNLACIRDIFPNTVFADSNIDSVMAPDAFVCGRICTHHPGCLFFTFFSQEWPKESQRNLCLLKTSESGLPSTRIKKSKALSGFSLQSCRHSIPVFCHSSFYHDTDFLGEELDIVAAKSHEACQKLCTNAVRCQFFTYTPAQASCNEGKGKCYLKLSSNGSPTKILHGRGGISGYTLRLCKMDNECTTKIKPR

By IC50 is commonly meant the concentration at which inhibition is half-maximal. Higher therefore signals weaker potency in that assay. In turn, `NCC1CCC(C(=O)N[C@@H](Cc2ccc(-c3cnc4[nH]ccc4c3)cc2)C(=O)Nc2ccc(-c3nn[nH]n3)cc2)CC1` (stereo partly drawn) [Example 2, N-alpha-{[trans-4-(Aminomethyl)cyclohexyl]carbonyl}-4-(1H-pyrrolo[2,3-b]pyridin-5-yl)-N-[4-(2H-tetrazol-5-yl)phenyl]-L-phenylalaninamide hydrochloride] gave an IC50 in experiment [1] of 2.6 nM.

`NCC1CCC(C(=O)N[C@@H](Cc2ccc(-c3cncc4ccccc34)cc2)C(=O)Nc2ccc(-c3nn[nH]n3)cc2)CC1` (stereo partly drawn) [Example 3, N-alpha-{[trans-4-(Aminomethyl)cyclohexyl]carbonyl}-4-isoquinolin-4-yl-N-[4-(2H-tetrazol-5-yl)phenyl]-L-phenylalaninamide hydrochloride] showed an IC50 in experiment [1] of 1.4 nM. In experiment [2], the “aPTT (concentration of test substance which brings about a 1.5-fold extension of the aPTT)” value was determined as 0.14 µmol/L.

For the molecule `Cn1c(=O)[nH]c2ccc(-c3ccc(C[C@H](NC(=O)C4CCC(CN)CC4)C(=O)Nc4ccc(-c5nn[nH]n5)cc4)cc3)cc21` (stereo partly drawn) [Example 4, N-alpha-{[trans-4-(Aminomethyl)cyclohexyl]carbonyl}-4-(3-methyl-2-oxo-2,3-dihydro-1H-benzimidazol-5-yl)-N-[4-(2H-tetrazol-5-yl)phenyl]-L-phenylalaninamide hydrochloride], the IC50 in experiment [1] amounted to 5.6 nM. Further, in experiment [2], the “aPTT (concentration of test substance which brings about a 1.5-fold extension of the aPTT)” value was 0.24 µmol/L.

Turning to `Cn1cc(-c2ccc(C[C@H](NC(=O)C3CCC(CN)CC3)C(=O)Nc3ccc(-c4nn[nH]n4)cc3)cc2)c(=O)[nH]c1=O` (stereo partly drawn) [Example 5, N-alpha-{[trans-4-(Aminomethyl)cyclohexyl]carbonyl}-4-(1-methyl-2,4-dioxo-1,2,3,4-tetrahydropyrimidin-5-yl)-N-[4-(2H-tetrazol-5-yl)phenyl]-L-phenylalaninamide hydrochloride], inhibition in experiment [1] was half-maximal at 5.1 nM (IC50). Besides, the “aPTT (concentration of test substance which brings about a 1.5-fold extension of the aPTT)” value in experiment [2] was 0.06 µmol/L.

In experiment [1], `NC[C@H]1CC[C@H](C(=O)N[C@@H](Cc2ccc(-c3cccc4[nH]ncc34)cc2)C(=O)Nc2ccc(-c3nn[nH]n3)cc2)CC1` [Example 6, N-alpha-{[trans-4-(Aminomethyl)cyclohexyl]carbonyl}-4-(1H-indazol-4-yl)-N-[4-(2H-tetrazol-5-yl)phenyl]-L-phenylalaninamide hydrochloride] showed an IC50 of 9 nM. For the same molecule, the “aPTT (concentration of test substance which brings about a 1.5-fold extension of the aPTT)” value in experiment [2] was determined as 0.41 µmol/L.

In the case of `Cc1nc2cc(-c3ccc(C[C@H](NC(=O)[C@H]4CC[C@H](CN)CC4)C(=O)Nc4ccc(-c5nn[nH]n5)cc4)cc3)ccc2[nH]1` [Example 7, N-alpha-{[trans-4-(Aminomethyl)cyclohexyl]carbonyl}-4-(2-methyl-1H-benzimidazol-5-yl)-N-[4-(2H-tetrazol-5-yl)phenyl]-L-phenylalaninamide hydrochloride], the IC50 in experiment [1] was determined as 4.6 nM.

Turning to `NC[C@H]1CC[C@H](C(=O)N[C@@H](Cc2ccc(-c3cccc4[nH]nc(N)c34)cc2)C(=O)Nc2ccc(-c3nn[nH]n3)cc2)CC1` [Example 10, 4-(3-Amino-1H-indazol-4-yl)-N-alpha-{[trans-4-(aminomethyl)cyclohexyl]carbonyl}-N-[4-(2H-tetrazol-5-yl)phenyl]-L-phenylalaninamide hydrochloride], the IC50 in experiment [1] came out at 1.9 nM.

The molecule `Cn1cc(-c2ccc(C[C@H](NC(=O)[C@H]3CC[C@H](CN)CC3)C(=O)Nc3ccc(-c4nn[nH]n4)cc3)cc2)c(=O)n(C)c1=O` [Example 11, N-alpha-{[trans-4-(Aminomethyl)cyclohexyl]carbonyl}-4-(1,3-dimethyl-2,4-dioxo-1,2,3,4-tetrahydropyrimidin-5-yl)-N-[4-(2H-tetrazol-5-yl)phenyl]-L-phenylalaninamide hydrochloride] had an IC50 in experiment [1] of 3.2 nM.

`NCCn1cnc2cc(-c3ccc(C[C@H](NC(=O)C4CCC(CN)CC4)C(=O)Nc4ccc(-c5nn[nH]n5)cc4)cc3)ccc21` (stereo partly drawn) [Example 13, 4-[1-(2-Aminoethyl)-1H-benzimidazol-5-yl]-N-alpha-{[trans-4-(aminomethyl)cyclohexyl]-carbonyl]-N-[4-(2H-tetrazol-5-yl)phenyl]-L-phenylalaninamide hydrochloride] yielded an IC50 in experiment [1] of 6.6 nM. In addition, in experiment [2], the “aPTT (concentration of test substance which brings about a 1.5-fold extension of the aPTT)” value was 0.18 µmol/L.

Molecule `NC[C@H]1CC[C@H](C(=O)N[C@@H](Cc2ccc(-c3c[nH]c(=O)[nH]c3=O)cc2)C(=O)Nc2ccc(-c3nn[nH]n3)cc2)CC1` [Example 14, N-alpha-{[trans-4-(Aminomethyl)cyclohexyl]carbonyl}-4-(2,4-dioxo-1,2,3,4-tetrahydropyrimidin-5-yl)-N-[4-(2H-tetrazol-5-yl)phenyl]-L-phenylalaninamide hydrochloride] registered an IC50 in experiment [1] of 6.8 nM.

For the molecule `Cn1cnc2ccc(-c3ccc(C[C@H](NC(=O)[C@H]4CC[C@H](CN)CC4)C(=O)Nc4ccc(-c5nn[nH]n5)cc4)cc3)cc21` [Example 15, N-alpha-{[trans-4-(Aminomethyl)cyclohexyl]carbonyl}-4-(1-methyl-1H-benzimidazol-6-yl)-N-[4-(2H-tetrazol-5-yl)phenyl]-L-phenylalaninamide hydrochloride], in experiment [1], it took 3.8 nM to reach half-maximal inhibition (IC50).

In experiment [1], `Cn1cnc2cc(-c3ccc(C[C@H](NC(=O)[C@H]4CC[C@H](CN)CC4)C(=O)Nc4ccc(-c5nn[nH]n5)cc4)cc3)ccc21` [Example 16, N-alpha-{[trans-4-(Aminomethyl)cyclohexyl]carbonyl}-4-(1-methyl-1H-benzimidazol-5-yl)-N-[4-(2H-tetrazol-5-yl)phenyl]-L-phenylalaninamide hydrochloride] gave a concentration for half-maximal inhibition (IC50) of 3.2 nM.

As for `NC[C@H]1CC[C@H](C(=O)N[C@@H](Cc2ccc(-c3cn(Cc4ccccc4)c(=O)[nH]c3=O)cc2)C(=O)Nc2ccc(-c3nn[nH]n3)cc2)CC1` [Example 17, N-alpha-{[trans-4-(Aminomethyl)cyclohexyl]carbonyl}-4-(1-benzyl-2,4-dioxo-1,2,3,4-tetrahydropyrimidin-5-yl)-N-[4-(2H-tetrazol-5-yl)phenyl]-L-phenylalaninamide hydrochloride], in experiment [1], half-maximal inhibition (IC50) was put at 0.5 nM.

`Cc1ccc2[nH]ncc2c1-c1ccc(C[C@H](NC(=O)[C@H]2CC[C@H](CN)CC2)C(=O)Nc2ccc(-c3nn[nH]n3)cc2)cc1` [Example 18, N-alpha-{[trans-4-(Aminomethyl)cyclohexyl]carbonyl}-4-(5-methyl-1H-indazol-4-yl)-N-[4-(2H-tetrazol-5-yl)phenyl]-L-phenylalaninamide hydrochloride]: the IC50 in experiment [1] was found to be 2.5 nM.

In experiment [1], `Cc1nc2c(cc1-c1ccc(C[C@H](NC(=O)[C@H]3CC[C@H](CN)CC3)C(=O)Nc3ccc4[nH]c(=O)[nH]c4c3)cc1)NCCN2` [Example 28, N-alpha-{[trans-4-(Aminomethyl)cyclohexyl]carbonyl}-4-(6-methyl-1,2,3,4-tetrahydropyrido[2,3-b]pyrazin-7-yl)-N-(2-oxo-2,3-dihydro-1H-benzimidazol-5-yl)-L-phenylalaninamide hydrochloride] registered an IC50 of 37 nM. The “aPTT (concentration of test substance which brings about a 1.5-fold extension of the aPTT)” value in experiment [2] was determined as 1.42 µmol/L.
